Experimental findings from ChEMBL document CHEMBL4190187, “Discovery of pyrazolopyrimidine derivatives as novel inhibitors of ataxia telangiectasia and rad3 related protein (ATR)” (Bioorg Med Chem Lett, 2017) are described below.

Data set [1] concerns the target Proto-oncogene tyrosine-protein kinase Src (Homo sapiens) (UniProt P12931). The experiment in a line: Inhibition of recombinant full-length human cSRC at 1 uM using KVEKIGEGTYGVVYK (Cdc2 peptide) as substrate after 40 mins in presence of [gamma-33P]ATP by scintillation counting method.
The target of data set [2] is Mitogen-activated protein kinase kinase kinase kinase 3 (Homo sapiens) (UniProt Q8IVH8). The experiment in a line: Inhibition of recombinant human MAP4K3 (1 to 291 residues) at 1 uM using RRRFRPASPLRGPPK as substrate after 40 mins in presence of [gamma-33P]ATP by scintillation counting method.
For data set [3], the target named is Testis-specific serine/threonine-protein kinase 4 (Homo sapiens) (UniProt Q6SA08). The experiment in a line: Inhibition of recombinant full-length human TSSK4 at 1 uM using KKLNRTLSFAEPG as substrate after 40 mins in presence of [gamma-33P]ATP by scintillation counting method.
The target of data set [4] is PI3-kinase p110-alpha/p85-alpha (Homo sapiens) (UniProt P27986+P42336). Kind of data set: Inhibition of recombinant full-length human p110a/p85a at 1 uM using phosphatidylinositol 4,5-bisphosphate as substrate after 40 mins in presence of [gamma-33P]ATP by scintillation counting method. It is filed as protein-complex assay.
For data set [5], the target named is Serine/threonine-protein kinase Nek11 (Homo sapiens) (UniProt Q8NG66). Kind of data set: Inhibition of recombinant full-length human NEK11 at 1 uM using myelin basic protein as substrate after 40 mins in presence of [gamma-33P]ATP by scintillation counting method.
Data set [6] relates to Hepatocyte growth factor receptor (Homo sapiens), P08581 [D1246H]. Kind of data set: Inhibition of recombinant human Met D1246H mutant (974 to end residues) at 1 uM using KKKGQEEEYVFIE as substrate after 40 mins in presence of [gamma-33P]ATP by scintillation counting method.
Data set [7] deals with Serine/threonine-protein kinase 25 (Homo sapiens) (UniProt O00506). Kind of data set: Inhibition of recombinant human STK25 (1 to 308 residues) at 1 uM using RLGRDKYKTLRQIRQ as substrate after 40 mins in presence of [gamma-33P]ATP by scintillation counting method.
Data set [8] has as its target Serine/threonine-protein kinase 17A (Homo sapiens) (UniProt Q9UEE5). Kind of data set: Inhibition of recombinant full-length human DRAK1 at 1 uM using KKLNRTLSFAEPG as substrate after 40 mins in presence of [gamma-33P]ATP by scintillation counting method.
Data set [9] concerns Hepatocyte growth factor receptor (Homo sapiens), P08581 [Y1248H]. Kind of data set: Inhibition of recombinant human Met Y1248H mutant (974 to end residues) at 1 uM using KKKGQEEEYVFIE as substrate after 40 mins in presence of [gamma-33P]ATP by scintillation counting method.
Data set [10] has as its system Mast/stem cell growth factor receptor Kit (Homo sapiens), P10721 [V560G]. The experiment in a line: Inhibition of recombinant human cKit V560G mutant (544 to end residues) at 1 uM using GGMEDIYFEFMGGKKK as substrate after 40 mins in presence of [gamma-33P]ATP by scintillation counting method.
For data set [11], the target named is TRAF2 and NCK-interacting protein kinase (Homo sapiens) (UniProt Q9UKE5). Kind of data set: Inhibition of recombinant human TNIK (1 to 367 residues) at 1 uM using RLGRDKYKTLRQIRQ as substrate after 40 mins in presence of [gamma-33P]ATP by scintillation counting method.
In data set [12] the target is Protein kinase C gamma type (Homo sapiens) (UniProt P05129). Kind of data set: Inhibition of recombinant full-length human PKCgamma at 1 uM using histone H1 as substrate after 40 mins in presence of [gamma-33P]ATP by scintillation counting method.
In data set [13] the target is Calcium/calmodulin-dependent protein kinase type IV (Homo sapiens) (UniProt Q16566). Kind of data set: Inhibition of recombinant full-length human CAMK4 at 1 uM using […] after 40 mins in presence of [gamma-33P]ATP by scintillation counting method.
In data set [14] the target is [Pyruvate dehydrogenase (acetyl-transferring)] kinase isozyme 4, mitochondrial (Homo sapiens) (UniProt Q16654). Kind of data set: Inhibition of recombinant full-length human PDHK4 at 1 uM using KKKYHGHSMSDPGVSYRT as substrate after 40 mins in presence of [gamma-33P]ATP by scintillation counting method.
Data set [15] deals with Serine/threonine-protein kinase ATR (Homo sapiens, UniProt Q13535). Kind of data set: Inhibition of recombinant full-length human ATR at 10 uM using GST-cMyc-p53 as substrate after 40 mins in presence of [gamma-33P]ATP by scintillation counting method.
For data set [16], the system named is Saccharomyces cerevisiae. The experiment in a line: Inhibition of recombinant Saccharomyces cerevisiae CK1alpha (2 to 298 residues) at 1 uM using KRRRALS(p)VASLPGL as substrate after 40 mins in presence of [gamma-33P]ATP by scintillation counting method.
The target in data set [17] is Dual specificity tyrosine-phosphorylation-regulated kinase 1B (Homo sapiens) (UniProt Q9Y463). The experiment in a line: Inhibition of recombinant full-length human DYRK1B at 1 uM using RRRFRPASPLRGPPK as substrate after 40 mins in presence of [gamma-33P]ATP by scintillation counting method.
Data set [18] concerns the target Serine/threonine-protein kinase MARK1 (Homo sapiens) (UniProt Q9P0L2). Kind of data set: Inhibition of recombinant human MARK1 (2 to end residues) at 1 uM using KKKVSRSGLYRSPSMPENLNRPR as substrate after 40 mins in presence of [gamma-33P]ATP by scintillation counting method.
Data set [19] in a line: Metabolic stability in rat liver microsomes assessed as compound remaining at 1 uM in presence of NADPH as cofactor measured after 30 mins by LC-MS/MS method. Conditions: read-out: Stability. Format: ADME, microsome. On the technique in general: Liver microsomes are vesicles of endoplasmic reticulum, rich in cytochrome P450 enzymes.
For data set [20], the target named is G protein-coupled receptor kinase 6 (Homo sapiens) (UniProt P43250). The experiment in a line: Inhibition of recombinant full-length human GRK6 at 1 uM using casein as substrate after 40 mins in presence of [gamma-33P]ATP by scintillation counting method.
Data set [21] deals with Serine/threonine-protein kinase ULK1 (Homo sapiens) (UniProt O75385). The experiment in a line: Inhibition of recombinant human ULK1 (1 to 314 residues) at 1 uM using casein as substrate after 40 mins in presence of [gamma-33P]ATP by scintillation counting method.
Data set [22] concerns the target Serine/threonine-protein kinase pim-2 (Homo sapiens) (UniProt Q9P1W9). Kind of data set: Inhibition of recombinant human PIM2 (2 to end residues) at 1 uM using RSRHSSYPAGT as substrate after 40 mins in presence of [gamma-33P]ATP by scintillation counting method.
In data set [23] the target is Serine/threonine-protein kinase TAO2 (Homo sapiens) (UniProt Q9UL54). Kind of data set: Inhibition of recombinant human TAO2 (1 to 320 residues) at 1 uM using myelin basic protein as substrate after 40 mins in presence of [gamma-33P]ATP by scintillation counting method.
Data set [24] addresses Homeodomain-interacting protein kinase 3 (Homo sapiens) (UniProt Q9H422). Kind of data set: Inhibition of recombinant human HIPK3 (161 to 562 residues) at 1 uM using myelin basic protein as substrate after 40 mins in presence of [gamma-33P]ATP by scintillation counting method.

Sequence of Serine/threonine-protein kinase ATR (Q13535 whole entry, looked up, the tested form may be a part): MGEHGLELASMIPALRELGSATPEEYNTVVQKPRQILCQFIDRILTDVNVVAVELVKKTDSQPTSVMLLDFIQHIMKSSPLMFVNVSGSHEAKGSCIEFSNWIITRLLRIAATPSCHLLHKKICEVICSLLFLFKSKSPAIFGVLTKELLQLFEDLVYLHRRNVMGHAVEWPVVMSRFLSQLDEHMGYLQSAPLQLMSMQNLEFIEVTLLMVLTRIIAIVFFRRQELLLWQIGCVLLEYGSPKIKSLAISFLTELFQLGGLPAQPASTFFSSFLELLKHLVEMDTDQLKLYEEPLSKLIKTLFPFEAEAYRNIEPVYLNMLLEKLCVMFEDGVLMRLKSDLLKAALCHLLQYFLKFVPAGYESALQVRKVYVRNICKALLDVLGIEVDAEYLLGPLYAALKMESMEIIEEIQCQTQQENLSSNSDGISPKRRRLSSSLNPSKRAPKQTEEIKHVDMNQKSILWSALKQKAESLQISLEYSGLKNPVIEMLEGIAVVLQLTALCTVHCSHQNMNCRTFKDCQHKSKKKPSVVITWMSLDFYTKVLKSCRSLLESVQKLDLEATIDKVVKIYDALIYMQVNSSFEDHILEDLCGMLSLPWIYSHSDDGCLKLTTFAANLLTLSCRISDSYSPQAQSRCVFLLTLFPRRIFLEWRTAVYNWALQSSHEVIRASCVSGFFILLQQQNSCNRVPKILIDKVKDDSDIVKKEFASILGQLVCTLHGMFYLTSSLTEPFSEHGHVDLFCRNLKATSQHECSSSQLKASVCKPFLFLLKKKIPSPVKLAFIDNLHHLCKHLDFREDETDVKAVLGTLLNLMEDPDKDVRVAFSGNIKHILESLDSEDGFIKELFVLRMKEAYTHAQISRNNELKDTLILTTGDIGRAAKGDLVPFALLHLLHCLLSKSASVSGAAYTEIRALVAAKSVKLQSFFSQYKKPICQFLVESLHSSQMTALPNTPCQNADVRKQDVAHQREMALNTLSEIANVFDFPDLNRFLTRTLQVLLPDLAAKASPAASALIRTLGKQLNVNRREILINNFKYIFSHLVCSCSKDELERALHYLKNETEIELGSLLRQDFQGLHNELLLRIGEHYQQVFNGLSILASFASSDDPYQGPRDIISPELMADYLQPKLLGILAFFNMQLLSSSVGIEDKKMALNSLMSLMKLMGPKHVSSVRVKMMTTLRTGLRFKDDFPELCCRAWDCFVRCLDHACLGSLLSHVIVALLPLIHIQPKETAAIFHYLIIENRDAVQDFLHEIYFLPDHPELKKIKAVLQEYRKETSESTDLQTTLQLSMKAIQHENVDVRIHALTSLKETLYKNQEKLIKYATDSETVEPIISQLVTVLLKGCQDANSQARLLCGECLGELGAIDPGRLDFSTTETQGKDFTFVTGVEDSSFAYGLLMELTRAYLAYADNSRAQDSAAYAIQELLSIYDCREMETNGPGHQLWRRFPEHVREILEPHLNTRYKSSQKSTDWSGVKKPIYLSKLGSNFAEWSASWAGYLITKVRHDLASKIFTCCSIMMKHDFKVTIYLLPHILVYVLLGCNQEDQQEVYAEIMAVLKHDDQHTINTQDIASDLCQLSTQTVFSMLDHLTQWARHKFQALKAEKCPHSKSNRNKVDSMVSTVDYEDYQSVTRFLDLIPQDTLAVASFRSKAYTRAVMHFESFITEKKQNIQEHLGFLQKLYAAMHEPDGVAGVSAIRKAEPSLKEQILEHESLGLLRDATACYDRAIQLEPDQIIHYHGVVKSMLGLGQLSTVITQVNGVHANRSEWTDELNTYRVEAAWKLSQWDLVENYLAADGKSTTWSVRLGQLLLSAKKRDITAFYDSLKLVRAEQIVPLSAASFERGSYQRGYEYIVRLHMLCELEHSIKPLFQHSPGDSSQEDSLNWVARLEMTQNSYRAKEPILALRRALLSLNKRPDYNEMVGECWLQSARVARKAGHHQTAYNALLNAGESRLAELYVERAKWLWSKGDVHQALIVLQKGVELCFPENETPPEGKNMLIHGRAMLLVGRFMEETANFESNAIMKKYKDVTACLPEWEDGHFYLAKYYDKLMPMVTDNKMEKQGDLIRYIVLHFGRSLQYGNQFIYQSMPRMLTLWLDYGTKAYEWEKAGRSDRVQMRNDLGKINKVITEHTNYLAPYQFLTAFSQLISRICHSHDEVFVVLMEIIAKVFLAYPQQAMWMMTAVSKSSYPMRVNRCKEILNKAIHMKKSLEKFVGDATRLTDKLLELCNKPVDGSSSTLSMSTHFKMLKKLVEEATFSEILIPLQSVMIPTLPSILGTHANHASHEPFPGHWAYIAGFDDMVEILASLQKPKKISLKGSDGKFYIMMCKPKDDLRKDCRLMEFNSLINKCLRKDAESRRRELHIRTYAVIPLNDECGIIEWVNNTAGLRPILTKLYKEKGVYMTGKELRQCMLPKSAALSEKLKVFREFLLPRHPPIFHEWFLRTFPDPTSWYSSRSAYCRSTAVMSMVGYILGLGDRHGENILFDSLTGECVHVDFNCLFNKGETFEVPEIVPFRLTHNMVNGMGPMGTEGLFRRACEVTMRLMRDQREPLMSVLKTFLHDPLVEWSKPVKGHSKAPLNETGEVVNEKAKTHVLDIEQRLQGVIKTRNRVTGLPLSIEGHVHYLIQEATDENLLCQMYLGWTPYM
Sequence of Dual specificity tyrosine-phosphorylation-regulated kinase 1B (Homo sapiens) (Q9Y463 whole entry, looked up): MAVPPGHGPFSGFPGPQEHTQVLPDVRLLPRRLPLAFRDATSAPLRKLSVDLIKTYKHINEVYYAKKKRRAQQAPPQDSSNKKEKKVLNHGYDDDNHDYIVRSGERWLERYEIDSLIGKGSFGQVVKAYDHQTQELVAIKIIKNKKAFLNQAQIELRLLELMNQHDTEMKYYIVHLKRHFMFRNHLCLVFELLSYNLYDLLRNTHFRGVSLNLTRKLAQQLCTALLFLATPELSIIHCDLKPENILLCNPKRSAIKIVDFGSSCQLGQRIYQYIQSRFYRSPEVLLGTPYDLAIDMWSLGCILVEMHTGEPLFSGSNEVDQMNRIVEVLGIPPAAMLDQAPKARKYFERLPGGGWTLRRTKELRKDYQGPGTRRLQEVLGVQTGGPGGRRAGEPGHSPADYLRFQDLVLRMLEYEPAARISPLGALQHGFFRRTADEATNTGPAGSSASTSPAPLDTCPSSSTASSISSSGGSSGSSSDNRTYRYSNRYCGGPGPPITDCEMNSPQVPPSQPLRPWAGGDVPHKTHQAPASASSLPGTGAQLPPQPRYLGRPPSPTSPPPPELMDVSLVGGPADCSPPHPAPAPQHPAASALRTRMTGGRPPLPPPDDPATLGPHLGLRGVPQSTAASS
Sequence of Calcium/calmodulin-dependent protein kinase type IV (Homo sapiens) (Q16566 whole entry): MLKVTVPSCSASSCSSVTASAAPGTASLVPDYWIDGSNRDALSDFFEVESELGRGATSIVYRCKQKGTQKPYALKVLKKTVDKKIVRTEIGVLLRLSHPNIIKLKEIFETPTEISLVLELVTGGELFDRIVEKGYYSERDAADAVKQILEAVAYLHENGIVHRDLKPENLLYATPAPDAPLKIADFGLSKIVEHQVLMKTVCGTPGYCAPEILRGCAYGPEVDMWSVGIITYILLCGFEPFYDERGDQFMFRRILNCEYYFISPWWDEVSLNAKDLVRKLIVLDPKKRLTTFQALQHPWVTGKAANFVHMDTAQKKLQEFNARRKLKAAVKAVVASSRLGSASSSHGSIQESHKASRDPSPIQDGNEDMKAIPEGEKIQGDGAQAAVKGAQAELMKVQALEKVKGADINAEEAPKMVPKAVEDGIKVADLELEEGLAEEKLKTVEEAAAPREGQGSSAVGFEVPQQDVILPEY
Sequence of Mast/stem cell growth factor receptor Kit (Homo sapiens), P10721 [V560G] (P10721 whole entry V560G, the tested form may be a part): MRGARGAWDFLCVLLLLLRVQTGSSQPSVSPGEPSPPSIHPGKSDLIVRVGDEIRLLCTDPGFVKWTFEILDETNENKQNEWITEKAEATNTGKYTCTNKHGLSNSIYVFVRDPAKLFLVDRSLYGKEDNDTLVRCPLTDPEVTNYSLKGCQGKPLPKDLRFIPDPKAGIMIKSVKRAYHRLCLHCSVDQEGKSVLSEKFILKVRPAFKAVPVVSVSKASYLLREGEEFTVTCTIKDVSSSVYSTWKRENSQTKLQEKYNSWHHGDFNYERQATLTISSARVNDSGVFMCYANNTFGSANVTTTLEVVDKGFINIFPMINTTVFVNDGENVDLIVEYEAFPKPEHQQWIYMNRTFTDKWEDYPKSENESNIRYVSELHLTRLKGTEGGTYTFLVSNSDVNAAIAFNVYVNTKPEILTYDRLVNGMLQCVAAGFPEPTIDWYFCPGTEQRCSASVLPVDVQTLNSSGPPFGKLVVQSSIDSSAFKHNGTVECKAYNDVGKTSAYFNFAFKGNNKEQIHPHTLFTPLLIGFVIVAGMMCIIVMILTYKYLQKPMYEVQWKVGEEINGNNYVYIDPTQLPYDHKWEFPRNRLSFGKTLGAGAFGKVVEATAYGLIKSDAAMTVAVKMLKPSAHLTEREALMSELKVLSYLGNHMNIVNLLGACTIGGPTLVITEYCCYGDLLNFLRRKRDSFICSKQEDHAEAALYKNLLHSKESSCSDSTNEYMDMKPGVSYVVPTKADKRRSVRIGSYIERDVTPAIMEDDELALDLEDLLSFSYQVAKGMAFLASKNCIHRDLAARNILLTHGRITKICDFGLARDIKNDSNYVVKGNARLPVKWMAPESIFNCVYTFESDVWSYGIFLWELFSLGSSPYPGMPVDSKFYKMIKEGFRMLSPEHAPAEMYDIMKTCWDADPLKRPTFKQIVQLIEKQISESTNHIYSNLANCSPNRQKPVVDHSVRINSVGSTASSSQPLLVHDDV
Sequence of Serine/threonine-protein kinase pim-2 (Homo sapiens) (Q9P1W9 whole entry, looked up, the tested form may be a part): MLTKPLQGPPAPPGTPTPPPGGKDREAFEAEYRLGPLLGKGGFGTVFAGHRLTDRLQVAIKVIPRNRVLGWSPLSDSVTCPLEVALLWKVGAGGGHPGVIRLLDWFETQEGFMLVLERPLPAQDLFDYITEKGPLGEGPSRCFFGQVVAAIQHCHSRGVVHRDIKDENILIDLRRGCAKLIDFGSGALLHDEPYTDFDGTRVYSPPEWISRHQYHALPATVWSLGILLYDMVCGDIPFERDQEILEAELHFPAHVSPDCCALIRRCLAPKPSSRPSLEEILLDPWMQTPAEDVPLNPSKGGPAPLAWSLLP

In the case of `CS(=O)(=O)c1ccc(-n2nc(-c3cnc4[nH]ccc4c3)c3c(N)ncnc32)cc1`, the inhibition in data set [1] was 53%; in [2] it was 2%; in data set [3], -10%; in [4], 6%; in data set [5], 19%; in data set [6], 1%. Besides, the inhibition in [7] was 45%; in data set [8], 31%; in data set [9], 4%; in data set [10], 76%; in [11], -9%; in [12] it was 3%. Moreover, the inhibition in data set [13] was 8%; in [14], -1%; in data set [15], 106%; in data set [16], 38%; in data set [17], -4%; in [18] it was -7%. Further, the inhibition in data set [20] is -3%; in data set [21], -1%; in data set [22], -7%; in data set [23], 9%; in data set [24] it was 4%. For the same compound, the remaining at 0.5 h, 1 µM in data set [19] was 63%.

As a reminder, the inhibition is the drop in the measured response relative to a control, in per cent.
